Test results taken from article PMC12453120, “TrkA of Streptococcus mitis CCUG31611 binds cyclic di-adenosine monophosphate and is required for growth in low potassium conditions” (Microbiology, 2025).
One block for each compound: values may come before it.

Key:
TrkA = molecular target: T1, TrkA (Streptococcus mitis, UniProt A0ACG7RC27); assay: nanoDSF, isothermal FoldAffinity fit; format: binding; settings: 500 nM TrkA, 150 mM KCl, 20 mM HEPES, 10% glycerol, pH 7.5
T1 construct: gene SM12261_0089; full-length ORF (1-221 aa), N-terminal 6xHis tag kept, pET30b, E. coli BL21(DE3); Ni-NTA + SEC; two bands on SDS-PAGE, both TrkA by MS; MS peptide positions up to 227 include the tag
T1 sequence (A0ACG7RC27 1-221): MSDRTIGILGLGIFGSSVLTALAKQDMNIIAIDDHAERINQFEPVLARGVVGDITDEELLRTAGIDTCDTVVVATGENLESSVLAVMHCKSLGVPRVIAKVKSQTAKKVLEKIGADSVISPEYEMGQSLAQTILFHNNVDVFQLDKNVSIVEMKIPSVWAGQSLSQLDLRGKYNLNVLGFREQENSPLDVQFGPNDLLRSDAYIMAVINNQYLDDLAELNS
Description: nanoDSF, isothermal FoldAffinity fit on TrkA

[1] = molecular target: TrkA of Streptococcus mitis CCUG31611 (SM12261_0089), recombinant with N-terminal 6x His-tag (Streptococcus mitis CCUG31611); assay: SEC; Sepharose 6 Increase 10-300 GL column, AKTA pure; 150 mM KCl, 20 mM HEPES, pH 7.5; flow 0.2 ml/min; MW estimated from a standard curve of gel filtration markers (12,000-200,000 Da), logMW vs VE/V0
[2] = Tiso 52 °C, unreliable (above the highest ligand concentration, 500 µM)

Compound: Nc1ncnc2c1ncn2[C@@H]1O[C@H](COP(=O)(O)OP(=O)(O)OP(=O)(O)O)[C@@H](O)[C@H]1O [ATP]
- Kd,app (μM)‡ (TrkA; [2]): 2,610.000 ± 2390.021 µM

Compound: Nc1ncnc2c1ncn2[C@@H]1O[C@H](COP(=O)(O)O[C@H]2[C@@H](O)[C@H](n3cnc4c(N)ncnc43)O[C@@H]2COP(=O)(O)O)[C@@H](O)[C@H]1O [pApA]
- Kd,app (μM)‡ (TrkA; [2]): 1,650.000 ± 494.975 µM

Compound: Nc1nc2c(ncn2[C@@H]2O[C@@H]3COP(=O)(O)O[C@H]4[C@@H](O)[C@H](n5cnc6c(=O)[nH]c(N)nc65)O[C@@H]4COP(=O)(O)O[C@H]3[C@H]2O)c(=O)[nH]1 [c-di-GMP]
- Kd,app (μM)‡ (TrkA; Tiso 54 °C, unreliable (far above the highest ligand concentration, 500 µM)): 100,000.000 ± 0.000 µM

Compound: Nc1ncnc2c1ncn2[C@@H]1O[C@H](COP(=O)(O)O)[C@@H](O)[C@H]1O [AMP]
- Kd,app (μM)‡ (TrkA; Tiso 54 °C, unreliable (above the highest ligand concentration, 500 µM)): 2,050.000 ± 494.975 µM

- stoichiometry N [1]: 8
Compound: TrkA of Streptococcus mitis CCUG31611 (SM12261_0089), recombinant with N-terminal 6x His-tag (natural protein)
